ChEMBL document CHEMBL3112408, “1,2,3-triazole-, arylamino- and thio-substituted 1,4-naphthoquinones: potent antitumor activity, electrochemical aspects, and bioisosteric replacement of C-ring-modified lapachones” (Bioorg Med Chem, 2014)
pIC50: −log10 of the molar value.

Legend:
L929 = experiment: Cytotoxicity against mouse L929 cells assessed as cell viability after 72 hrs by MTT assay; type: ADME, cell-based; conditions: L929, 72 h
V79 = experiment: Cytotoxicity against chinese hamster V79 cells assessed as cell viability after 72 hrs by MTT assay; type: cell-based; conditions: Cricetulus griseus, V79, 72 h
PBMC = experiment: Cytotoxicity against human PBMC assessed as cell viability after 72 hrs by MTT assay; type: cell-based
[1] = Cytotoxicity against human Hs578T cells assessed as cell viability after 72 hrs by MTT assay; type: functional, cell-based; conditions: Hs-578T
MX1 = experiment: Cytotoxicity against human MX1 cells assessed as cell viability after 72 hrs by MTT assay; type: functional, cell-based; conditions: MX1, 72 h
MCF7 = experiment: Cytotoxicity against human MCF7 cells assessed as cell viability after 72 hrs by MTT assay; type: functional, cell-based; conditions: MCF7, 72 h
DU-145 = experiment: Cytotoxicity against human DU145 cells assessed as cell viability after 72 hrs by MTT assay; type: functional, cell-based; conditions: DU-145, 72 h
PC-3 = experiment: Cytotoxicity against human PC3 cells assessed as cell viability after 72 hrs by MTT assay; type: functional, cell-based; conditions: PC-3, 72 h
HCT-116 = experiment: Cytotoxicity against human HCT116 cells assessed as cell viability after 72 hrs by MTT assay; type: functional, cell-based; conditions: HCT-116, 72 h
[2] = Cytotoxicity against human HCT8 cells assessed as cell viability after 72 hrs by MTT assay; type: functional, cell-based; conditions: HCT-8, 72 h
MDA-MB-435 = experiment: Cytotoxicity against human MDA-MB-435 cells assessed as cell viability after 72 hrs by MTT assay; type: functional, cell-based; conditions: MDA-MB-435, 72 h
SF-295 = experiment: Cytotoxicity against human SF295 cells assessed as cell viability after 72 hrs by MTT assay; type: functional, cell-based; conditions: SF-295, 72 h
OVCAR-8 = experiment: Cytotoxicity against human OVCAR8 cells assessed as cell viability after 72 hrs by MTT assay; type: functional, cell-based; conditions: OVCAR-8, 72 h
HL-60 = experiment: Cytotoxicity against human HL60 cells assessed as cell viability after 72 hrs by MTT assay; type: functional, cell-based; conditions: HL-60, 72 h

Structure (SMILES)	pIC50 (L929)	pIC50 (V79)	pIC50 (PBMC)	pIC50 [1]	pIC50 (MX1)	pIC50 (MCF7)	pIC50 (DU-145)	pIC50 (PC-3)	pIC50 (HCT-116)	pIC50 [2]	pIC50 (MDA-MB-435)	pIC50 (SF-295)	pIC50 (OVCAR-8)	pIC50 (HL-60)
CC1(C)CC(Nc2ccc(I)cc2)C2=C(O1)C(=O)c1ccccc1C2=O (stereo not given)	5.64	5.59	5.49	5.04	4.97	5.12	4.97	5.04	< 5.00	< 5.00	5.05	5.04	< 5.00	5.16
O=C1C(Br)=C(NCc2cn(CCN3C(=O)c4ccccc4C3=O)nn2)C(=O)c2ccccc21	< 5.05	< 5.05	< 5.05	< 5.05	< 5.05	< 5.05	< 5.05	< 5.05	< 5.05	< 5.05	< 5.05	< 5.05	< 5.05	< 5.05
CCCCCCc1cn(C2C3=C(OC2(C)C)C(=O)c2ccccc2C3=O)nn1 (stereo not given)	5.08	5.14	5.05	5.08	5.13	5.03	5.01	4.99	5.31	5.27	5.40	4.95	5.27	5.72
COc1ccc(NC2CC(C)(C)OC3=C2C(=O)c2ccccc2C3=O)cc1 (stereo not given)	6.13	6.02	5.75	6.16	6.28	5.99	6.06	6.26	6.48	6.33	6.24	6.13	6.36	6.72
CC1(C)CC(Nc2cccc(F)c2)C2=C(O1)C(=O)c1ccccc1C2=O (stereo not given)	5.49	5.57	5.35	5.11	5.15	5.16	5.06	5.11	–	–	–	–	–	–
CC1(C)CC(Sc2ccccc2)C2=C(O1)C(=O)c1ccccc1C2=O (stereo not given)	< 4.85	< 4.85	< 4.85	5.34	4.93	4.88	< 4.85	< 4.85	< 4.85	< 4.85	–	< 4.85	< 4.85	5.54
CC1(C)CC(Nc2ccc(Cl)cc2)C2=C(O1)C(=O)c1ccccc1C2=O (stereo not given)	5.73	5.82	6.28	6.22	6.12	6.01	5.93	6.00	6.27	6.19	6.00	6.15	5.83	6.01
O=C1C(Cl)=C(NCc2cn(CCCCN3C(=O)c4ccccc4C3=O)nn2)C(=O)c2ccccc21	< 5.00	< 5.00	< 5.00	< 5.00	< 5.00	< 5.00	< 5.00	< 5.00	< 5.00	< 5.00	< 5.00	< 5.00	< 5.00	< 5.00
O=C1C=C(n2cc(CNC3=C(Br)C(=O)c4ccccc4C3=O)nn2)C(=O)c2ccccc21	< 5.00	< 5.00	< 5.00	< 5.00	< 5.00	< 5.00	< 5.00	< 5.00	< 5.00	< 5.00	< 5.00	< 5.00	< 5.00	< 5.00
O=C1C(Cl)=C(NCc2cn(CCCN3C(=O)c4ccccc4C3=O)nn2)C(=O)c2ccccc21	< 5.00	< 5.00	< 5.00	< 5.00	< 5.00	< 5.00	< 5.00	< 5.00	< 5.00	< 5.00	< 5.00	< 5.00	< 5.00	< 5.00
O=C1C(Br)=C(NCc2cn(CN3C(=O)c4ccccc4C3=O)nn2)C(=O)c2ccccc21	< 5.00	< 5.00	< 5.00	< 5.00	< 5.00	< 5.00	< 5.00	< 5.00	< 5.00	< 5.00	< 5.00	< 5.00	< 5.00	< 5.00
O=C1C=C(NCc2cn(CN3C(=O)c4ccccc4C3=O)nn2)C(=O)c2ccccc21	< 4.92	< 4.92	< 4.92	< 4.92	< 4.92	< 4.92	< 4.92	< 4.92	< 4.92	< 4.92	< 4.92	< 4.92	< 4.92	< 4.92
COc1cccc2c1C(=O)c1c(O)c3c(c(O)c1C2=O)C[C@@](O)(C(=O)CO)C[C@@H]3O[C@H]1C[C@H](N)[C@H](O)[C@H](C)O1 [DOXORUBICIN]	–	6.62	–	6.43	6.30	–	6.28	–	–	6.89	–	–	6.46	–
CC1(C)CC(Nc2ccc(Br)cc2)C2=C(O1)C(=O)c1ccccc1C2=O (stereo not given)	5.62	5.59	5.54	5.19	5.20	5.30	5.17	5.27	5.23	5.27	5.28	5.20	5.26	5.33
O=C1C=C(NCc2cn(CCCN3C(=O)c4ccccc4C3=O)nn2)C(=O)c2ccccc21	< 4.96	< 4.96	< 4.96	< 4.96	< 4.96	< 4.96	< 4.96	< 4.96	< 4.96	< 4.96	< 4.96	< 4.96	< 4.96	< 4.96
CC1(C)CC(Nc2cccc(Br)c2)C2=C(O1)C(=O)c1ccccc1C2=O (stereo not given)	5.42	5.49	5.30	4.94	5.06	5.00	4.98	5.01	< 4.92	< 4.92	5.02	5.06	4.98	5.12
CC1(C)OC2=C(C(=O)c3ccccc3C2=O)C1Sc1ccccc1 (stereo not given)	4.86	< 4.83	< 4.83	5.49	5.19	5.13	5.16	5.22	5.48	5.65	–	5.04	5.22	6.33
CC1(C)CC(Nc2cccc([N+](=O)[O-])c2)C2=C(O1)C(=O)c1ccccc1C2=O (stereo not given)	5.34	5.41	5.32	–	–	–	–	–	5.07	5.19	5.84	5.82	–	5.82
